Experimental data: patent publication US10406146B2, “Heterocyclic compound” (TAKEDA PHARMACEUTICAL COMPANY LIMITED, priority 2015, dated 2019)

Experiments:
Type in all cases: biochemical
HDAC9 enzyme = target: T1, HDAC9 enzyme (Homo sapiens, UniProt Q9UKV0); experiment: HDAC9 enzyme inhibitory assay (HDAC-Glo class IIa); details: wells without enzyme = 100% inhibition, read-out: HDAC9 inhibitory rate (%) (1 μM)
T1 construct: transducing full length HDAC9 gene into Sf-9 insect cells; made in house; host or cells: Sf-9 insect cells
T1 sequence (Q9UKV0 whole entry, species assumed): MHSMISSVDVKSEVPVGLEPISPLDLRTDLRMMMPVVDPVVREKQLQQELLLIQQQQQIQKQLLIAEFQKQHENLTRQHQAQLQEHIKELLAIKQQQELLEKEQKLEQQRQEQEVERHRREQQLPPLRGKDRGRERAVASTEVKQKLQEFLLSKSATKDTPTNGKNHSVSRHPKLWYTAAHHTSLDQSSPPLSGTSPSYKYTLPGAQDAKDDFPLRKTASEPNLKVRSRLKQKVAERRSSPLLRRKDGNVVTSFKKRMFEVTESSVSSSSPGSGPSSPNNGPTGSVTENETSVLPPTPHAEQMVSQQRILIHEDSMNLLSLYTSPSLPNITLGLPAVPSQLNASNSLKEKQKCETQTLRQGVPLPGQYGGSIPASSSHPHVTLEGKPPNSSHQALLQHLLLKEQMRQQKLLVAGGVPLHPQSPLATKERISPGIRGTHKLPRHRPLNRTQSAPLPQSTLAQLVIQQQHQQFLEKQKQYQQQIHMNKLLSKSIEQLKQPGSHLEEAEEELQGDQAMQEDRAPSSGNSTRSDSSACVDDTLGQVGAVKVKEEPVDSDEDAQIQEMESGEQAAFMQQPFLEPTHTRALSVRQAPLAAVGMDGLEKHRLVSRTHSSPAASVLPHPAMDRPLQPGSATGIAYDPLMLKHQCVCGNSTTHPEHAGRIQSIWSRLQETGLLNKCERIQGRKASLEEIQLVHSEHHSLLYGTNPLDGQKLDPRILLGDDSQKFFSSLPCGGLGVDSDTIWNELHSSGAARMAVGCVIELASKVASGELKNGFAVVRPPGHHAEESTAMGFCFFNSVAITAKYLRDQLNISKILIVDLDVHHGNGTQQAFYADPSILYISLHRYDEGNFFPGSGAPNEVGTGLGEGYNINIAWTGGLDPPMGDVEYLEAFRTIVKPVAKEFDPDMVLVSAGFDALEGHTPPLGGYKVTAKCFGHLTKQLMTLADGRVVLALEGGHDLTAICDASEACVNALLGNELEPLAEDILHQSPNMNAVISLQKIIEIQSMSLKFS
Experimental: HDAC9 Enzyme Inhibitory Assay
Enzyme was prepared by transducing full length HDAC9 gene into Sf-9 insect cells and purifying by Ni-NTA affinity column, and HDAC9 enzyme inhibitory activity was evaluated. Enzymes were used after preserved at −70° C. HDAC9 enzyme inhibitory activity of the test compound was measured using HDAC-Glo class IIa (Promega) according to the following experimental method. The test compound diluted with assay buffer (24 mM Tris-HCl (pH 7.5), 1 mM MgCl2, 0.35 mM KCl, 135 mM NaCl, 0.6 mM Glutathione, 0.01% Tween-20) was added to a 384-well plate by each 2 μL. Then, HDAC9 enzyme solution diluted with assay buffer was added thereto by each 2 μL, and the plate was incubated at room temperature for 60 min. After incubated, HDAC substrate-Developer solution prepared according to Promega protocol was added to the 384-well plate by each 4 μL, and the enzyme reaction was started. After reacting at room temperature for 20 min, luminescence level was measured using plate reader Envision (PerkinElmer). The inhibitory activity of each compound was calculated as a relative activity value when luminescence level in wells without enzyme is considered as 100% inhibition.

HDAC1 enzyme = target: T2, HDAC1 enzyme (Homo sapiens, UniProt Q13547); experiment: HDAC1 enzyme inhibitory assay (HDAC-Glo I/II Assay kit); details: wells without enzyme = 100% inhibition, read-out: HDAC1 inhibitory rate (%) (1 μM)
T2 construct: transducing full length HDAC1 and HDAC6 genes into Sf-9 insect cells; GST; purchased SignalChem; host or cells: Sf-9 insect cells
T2 sequence (Q13547 whole entry): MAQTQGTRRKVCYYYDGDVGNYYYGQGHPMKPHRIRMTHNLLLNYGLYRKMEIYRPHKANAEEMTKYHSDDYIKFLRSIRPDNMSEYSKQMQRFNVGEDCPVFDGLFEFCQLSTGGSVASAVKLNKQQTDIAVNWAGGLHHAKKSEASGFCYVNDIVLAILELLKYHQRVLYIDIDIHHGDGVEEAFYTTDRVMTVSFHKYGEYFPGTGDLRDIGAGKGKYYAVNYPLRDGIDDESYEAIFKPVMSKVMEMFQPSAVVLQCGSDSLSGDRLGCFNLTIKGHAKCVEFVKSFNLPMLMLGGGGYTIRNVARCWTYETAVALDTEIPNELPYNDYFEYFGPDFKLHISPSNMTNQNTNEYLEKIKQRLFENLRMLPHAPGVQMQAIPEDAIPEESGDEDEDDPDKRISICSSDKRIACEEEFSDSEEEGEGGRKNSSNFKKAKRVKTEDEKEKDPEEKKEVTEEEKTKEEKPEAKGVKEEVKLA
Experimental: (§1) HDAC1/6 Enzyme Inhibitory Assay
(§2) HDAC1 enzyme and HDAC6 enzyme each prepared by transducing full length HDAC1 and HDAC6 genes into Sf-9 insect cells and purifying by GST affinity column were purchased from SignalChem. Using these enzymes, HDAC1 and/or HDAC6 enzyme inhibitory activities of the compound of the present invention were evaluated. Enzymes were used after preserved at −70° C. HDAC1 or HDAC6 enzyme inhibitory activity of the compound of the present invention was measured using HDAC-Glo™ I/II Assay kit (Promega) according to the following experimental method. The test compound diluted with assay buffer (24 mM Tris-HCl (pH 7.5), 1 mM MgCl2, 0.35 mM KCl, 135 mM NaCl, 0.6 mM Glutathione, 0.01% Tween-20) was added to a 384-well plate by each 2 μL. Then, HDAC1 or HDAC6 enzyme solution diluted with assay buffer was added thereto by each 4 μL, and the plate was incubated at room temperature for 60 min. After incubated, HDAC substrate-Developer solution prepared according to Promega protocol attached to the assay kit was added to the 384-well plate by each 2 μL, and the enzyme reaction was started. After reacting at room temperature for 20 min, luminescence level was measured using plate reader Envision (PerkinElmer). The inhibitory activity of each compound was calculated as a relative activity value when luminescence level in wells without enzyme is considered as 100% inhibition.

HDAC6 enzyme = target: T3, HDAC6 enzyme (Homo sapiens, UniProt Q9UBN7); experiment: HDAC6 enzyme inhibitory assay (HDAC-Glo I/II Assay kit); details: wells without enzyme = 100% inhibition, read-out: HDAC6 inhibitory rate (%) (1 μM)
T3 construct: transducing full length HDAC1 and HDAC6 genes into Sf-9 insect cells; GST; purchased SignalChem; host or cells: Sf-9 insect cells
T3 sequence (Q9UBN7 1-1215): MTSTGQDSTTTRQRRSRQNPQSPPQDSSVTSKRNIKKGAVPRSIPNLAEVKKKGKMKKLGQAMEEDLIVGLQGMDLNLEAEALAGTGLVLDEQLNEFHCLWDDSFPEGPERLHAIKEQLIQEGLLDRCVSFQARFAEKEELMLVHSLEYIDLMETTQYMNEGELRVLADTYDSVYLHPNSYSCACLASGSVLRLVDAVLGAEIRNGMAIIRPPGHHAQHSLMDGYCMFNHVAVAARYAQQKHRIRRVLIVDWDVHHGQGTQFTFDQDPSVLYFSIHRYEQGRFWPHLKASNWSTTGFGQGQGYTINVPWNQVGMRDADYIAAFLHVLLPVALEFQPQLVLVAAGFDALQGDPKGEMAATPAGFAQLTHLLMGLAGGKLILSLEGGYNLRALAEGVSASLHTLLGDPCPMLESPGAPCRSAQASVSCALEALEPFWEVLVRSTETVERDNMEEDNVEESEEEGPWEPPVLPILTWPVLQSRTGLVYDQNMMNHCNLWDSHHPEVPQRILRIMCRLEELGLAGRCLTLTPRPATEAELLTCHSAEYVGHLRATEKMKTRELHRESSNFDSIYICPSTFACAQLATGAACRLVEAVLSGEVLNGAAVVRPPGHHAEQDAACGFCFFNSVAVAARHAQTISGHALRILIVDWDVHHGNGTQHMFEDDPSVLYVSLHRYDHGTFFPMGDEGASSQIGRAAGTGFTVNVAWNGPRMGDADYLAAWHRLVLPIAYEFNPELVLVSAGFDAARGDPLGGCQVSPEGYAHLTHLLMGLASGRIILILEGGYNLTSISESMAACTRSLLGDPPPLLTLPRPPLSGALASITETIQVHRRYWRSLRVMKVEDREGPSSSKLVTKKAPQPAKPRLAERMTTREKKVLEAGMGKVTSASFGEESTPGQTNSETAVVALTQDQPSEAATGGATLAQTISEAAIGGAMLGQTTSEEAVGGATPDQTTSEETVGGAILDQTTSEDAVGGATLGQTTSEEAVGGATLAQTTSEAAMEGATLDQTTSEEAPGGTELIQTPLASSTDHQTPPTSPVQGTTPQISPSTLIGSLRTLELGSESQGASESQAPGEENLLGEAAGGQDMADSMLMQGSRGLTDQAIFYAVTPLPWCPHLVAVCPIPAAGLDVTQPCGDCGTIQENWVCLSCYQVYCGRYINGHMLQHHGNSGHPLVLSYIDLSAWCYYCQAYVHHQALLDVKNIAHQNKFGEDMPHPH
Experimental: as §1, §2

| Compound | inhibition at 1 µM (HDAC9 enzyme) | inhibition at 1 µM (HDAC1 enzyme) | inhibition at 1 µM (HDAC6 enzyme) |
| --- | --- | --- | --- |
| O=C(NCC1CCCCN1C(=O)Nc1ccc(-c2noc(C(F)(F)F)n2)cc1)c1cccs1 (stereo not drawn) [Example 38, 2-(((2-thienylcarbonyl)amino)methyl)-N-(4-(5-(trifluoromethyl)-1,2,4-oxadiazol-3-yl)phenyl)piperidine-1-carboxamide] | 95% | 37% | 7% |
| O=C(NCC1CCCCN1C(=O)Nc1ccc(-c2noc(C(F)(F)F)n2)cc1)c1ccccc1-c1ccccc1 (stereo not drawn) [Example 13, 2-(((biphenyl-2-ylcarbonyl)amino)methyl)-N-(4-(5-(trifluoromethyl)-1,2,4-oxadiazol-3-yl)phenyl)piperidine-1-carboxamide] | 82% | 19% | 9% |
| O=C(NCC1CCCCN1C(=O)Nc1ccc(-c2noc(C(F)(F)F)n2)cc1)c1ccc(F)cc1 (stereo not drawn) [Example 6, 2-(((4-fluorobenzoyl)amino)methyl)-N-(4-(5-(trifluoromethyl)-1,2,4-oxadiazol-3-yl)phenyl)piperidine-1-carboxamide] | 94% | 34% | 5% |
| O=C(NCC1COCCN1C(=O)Nc1ccc(-c2noc(C(F)(F)F)n2)cn1)c1ccccc1 (stereo not drawn) [Example 64, 3-((benzoylamino)methyl)-N-(5-(5-(trifluoromethyl)-1,2,4-oxadiazol-3-yl)pyridin-2-yl)morpholine-4-carboxamide] | 94% | 85% | 15% |
| O=C(NCC1CCCCN1C(=O)Nc1ccc(-c2noc(C(F)(F)F)n2)cc1)C1CC1 (stereo not drawn) [Example 49, 2-(((cyclopropylcarbonyl)amino)methyl)-N-(4-(5-(trifluoromethyl)-1,2,4-oxadiazol-3-yl)phenyl)piperidine-1-carboxamide] | 92% | 75% | 7% |
| O=C(Cc1cccs1)NCC1CCCCN1C(=O)Nc1ccc(-c2noc(C(F)(F)F)n2)cc1 (stereo not drawn) [Example 46, 2-(((2-thienylacetyl)amino)methyl)-N-(4-(5-(trifluoromethyl)-1,2,4-oxadiazol-3-yl)phenyl)piperidine-1-carboxamide] | 94% | 93% | 11% |
| NC(=O)c1ccc(C(=O)NCC2CCCCN2C(=O)Nc2ccc(-c3noc(C(F)(F)F)n3)cc2)cc1 (stereo not drawn) [Example 22, N-((1-((4-(5-(trifluoromethyl)-1,2,4-oxadiazol-3-yl)phenyl)carbamoyl)piperidin-2-yl)methyl)terephthalamide] | 90% | 6% | 2% |
| O=C(NCC1CCCCN1C(=O)Nc1ccc(-c2noc(C(F)(F)F)n2)cc1)c1cccc(C(F)(F)F)c1 (stereo not drawn) [Example 17, 2-(((3-(trifluoromethyl)benzoyl)amino)methyl)-N-(4-(5-(trifluoromethyl)-1,2,4-oxadiazol-3-yl)phenyl)piperidine-1-carboxamide] | 80% | 4% | 1% |
| O=C(NCC1CCCCN1C(=O)Nc1ccc(-c2noc(C(F)(F)F)n2)cc1)c1csc(C(F)(F)F)n1 (stereo not drawn) [Example 60, N-(4-(5-(trifluoromethyl)-1,2,4-oxadiazol-3-yl)phenyl)-2-((((2-(trifluoromethyl)-1,3-thiazol-4-yl)carbonyl)amino)methyl)piperidine-1-carboxamide] | 72% | 20% | 1% |
| O=C(NCC1CCCCN1C(=O)Nc1ccc(-c2noc(C(F)(F)F)n2)cc1)C1CCc2ccccc2O1 (stereo not drawn) [Example 43, 2-(((3,4-dihydro-2H-chromen-2-ylcarbonyl)amino)methyl)-N-(4-(5-(trifluoromethyl)-1,2,4-oxadiazol-3-yl)phenyl)piperidine-1-carboxamide] | 74% | 57% | 7% |
| Cc1cc(C(=O)NCC2CCCCN2C(=O)Nc2ccc(-c3noc(C(F)(F)F)n3)cc2)ccn1 (stereo not drawn) [Example 57, 2-methyl-N-((1-((4-(5-(trifluoromethyl)-1,2,4-oxadiazol-3-yl)phenyl)carbamoyl)piperidin-2-yl)methyl)isonicotinamide] | 94% | 38% | 6% |
| Cn1nccc1C(=O)NC[C@@H]1COCCN1C(=O)Nc1ccc(-c2noc(C(F)(F)F)n2)cc1 [Example 63, (3R)-3-((((1-methyl-1H-pyrazol-5-yl)carbonyl)amino)methyl)-N-(4-(5-(trifluoromethyl)-1,2,4-oxadiazol-3-yl)phenyl)morpholine-4-carboxamide] | 99% | 70% | 11% |
| Cn1nccc1C(=O)NCC1CCCCN1C(=O)Nc1ccc(-c2noc(C(F)(F)F)n2)cc1 (stereo not drawn) [Example 41, 2-((((1-methyl-1H-pyrazol-5-yl)carbonyl)amino)methyl)-N-(4-(5-(trifluoromethyl)-1,2,4-oxadiazol-3-yl)phenyl)piperidine-1-carboxamide] | 98% | 59% | 7% |
| O=C(NCC1CCCCN1C(=O)Nc1ccc(-c2noc(C(F)(F)F)n2)cc1)c1ccccc1F (stereo not drawn) [Example 4, 2-(((2-fluorobenzoyl)amino)methyl)-N-(4-(5-(trifluoromethyl)-1,2,4-oxadiazol-3-yl)phenyl)piperidine-1-carboxamide] | 89% | 44% | 5% |
| Cn1nccc1C(=O)NC[C@H]1COCCN1C(=O)Nc1ccc(-c2noc(C(F)(F)F)n2)cc1 [Example 62, (3S)-3-((((1-methyl-1H-pyrazol-5-yl)carbonyl)amino)methyl)-N-(4-(5-(trifluoromethyl)-1,2,4-oxadiazol-3-yl)phenyl)morpholine-4-carboxamide] | 92% | 53% | 6% |
| CN(C)c1ccc(C(=O)NCC2CCCCN2C(=O)Nc2ccc(-c3noc(C(F)(F)F)n3)cc2)cc1 (stereo not drawn) [Example 29, 2-(((4-(dimethylamino)benzoyl)amino)methyl)-N-(4-(5-(trifluoromethyl)-1,2,4-oxadiazol-3-yl)phenyl)piperidine-1-carboxamide] | 88% | 1% | 1% |
